Data: US8981112B2, “Inhibitors of β-secretase” (Boehringer Ingelheim International GmbH, priority 2012, dated 2015)
pIC50: −log10 of the molar value. Where two headings read alike, the source gives them in different places.

What was measured:
[1] = In Vitro Phospholipidosis Assay (Assay 4), Nile red staining; assay type: cell-based; conditions: human, first effect concentration, U937 cells, read-out: Phospholipidosis FEC IC50 μM (assay 4)
Protocol: In Vitro Phospholipidosis Assay (Assay 4)
The phospholipidogenic potential of test compounds was assayed using the human hematopoetic U937 cell line. The test principle was to analyze the phospholipid content by staining the cells with the fluorescent dye Nile red.
U937 cells were seeded into cell culture plates at 0.5×10^6 cells/mL in RPMI medium containing 10% FBS, 1% DMSO, and 0.005% gentamicin. The cells were then cultivated with or without different concentrations of test compounds for 48 h under standard culture conditions.
For harvesting the cells were centrifuged at 130×g for 4 min and washed once with PBS. Then 2×0.5 mL cell suspension was prepared for non-fixed cell measurement (0.5 mL for propidium iodide (PI) viability measurement and 0.5 mL for Nile red measurement).
The remaining cells were fixed with 3.7% formaldehyde for 30 min. After a further centrifugation step cells were resuspended with 1.3 mL Nile red working solution (1 μg/mL) and incubated for 5 min at rt. The cell suspension was then washed twice with 3 mL PBS and centrifuged with 130×g for 4 min. The supernatant was discarded and the cells were resuspended with 0.5 mL PBS and kept for flow cytometry measurement. For Nile red staining of the 0.5 mL non-fixed cell samples, 50 μL of a ready to use Nile red solution (10 μg/mL) were added per sample. Samples were kept on ice for 5 min. Thereafter, they were washed once with 4 mL PBS (4° C., 250×g for 8 min) and finally resuspended in 400 μL PBS and kept for flow cytometry measurement.
For the viability measurement, 12.5 μL of the ready to use PI solution (10 μg/mL) were added to the 0.5 mL non-fixed cell suspension. After 15 min of incubation on ice, the samples were measured by flow cytometry using a Coulter Epics XL/MCL flow cytometer.
The viability of the cells of each sample was determined by flow cytometry measurement of the PI content at channel 2 (568-590 nm). Cut-off gates for the fluorescence-dependent differentiation between live and dead cells were defined based on the analysis of cell culture medium control samples.
Only samples with a cell viability of >=90% relative to control samples were analyzed for phospholipidosis. For that, each Nile red sample (non-fixed and fixed samples) was measured by flow cytometry at channel 1 (504-541 nm) and channel 4 (660-680 nm).
For each channel, relative Nile red fluorescence intensity of a test sample was calculated compared to control samples and expressed as percentage of control fluorescence intensity. The assessment of the phospholipidogenic potential and the first effect concentration (FEC) of a test compound was done manually based on the fluorescence intensities at both wavelengths for the fixed cells as well as for the non-fixed cells.

[2] = test system: production of Abeta1-x peptides in H4 neuroglioma cell line stably expressing human APP; assay: H4-APPwt Cell-Based Assay (Assay 2), Abeta1-x production; conditions: for IC50: H4 neuroglioma cells expressing human APP, Abeta1-x, read-out: H4-APPwt cell IC50 nM (assay 2); for pIC50: Homo sapiens, Table 2 comparison examples, read-out: H4-Cell assay (assay 2)
Protocol: H4-APPwt Cell-Based Assay (Assay 2)
Cellular potency of the compounds of the invention was assessed in an assay monitoring production of Abeta1-x peptides in the H4 neuroglioma cell line (ATCC, Cat. #HTB-148) stably expressing human APP, using an immunoassay such as AlphaLISA (PerkinElmer, Cat.# AL288). Tested compounds were dissolved in DMSO and pre-diluted in the culture medium (DMEM containing 10% FBS and 1% penicillin/streptomycin) to achieve twice the final concentration of the compounds in the assay. Equal volumes of the 2× solutions of the tested compounds and cell suspension were added to a 96-well culture plate, so that each well contained ˜10,000 cells in a final volume of 200 μl. Final concentration of DMSO in the assay was 0.2%. The plates were incubated for 5 hrs at 37° C., 5% CO2 to allow cells to attach to the bottom of the wells in the presence of the tested compounds. Then the media was removed and replaced with fresh media containing tested compounds at the same final concentration. The plates were incubated for 18 hrs at 37° C., 5% CO2. Concentrations of Ab1-x were determined using AlphaLISA immunoassay (PerkinElmer, Cat.# AL288) following manufacturer's protocol. Concentrations of Abeta1-x in the wells containing either DMSO or 10 μM beta-secretase inhibitor (BACE inhibitor IV, EMD Bioscience, Cat. #565788) were used as uninhibited and background controls, correspondingly, for calculating percent inhibition values for each well with the tested compounds.

[3] = biological target: truncated human beta-secretase, BACE1 (amino acids 1-454) (Homo sapiens (Human), UniProt P56817); assay: BACE1 Assay (Assay 1), fluorescence quench assay; assay type: biochemical; conditions: for IC50: read-out: BACE1 IC50 nM (assay 1); for pIC50: Table 2 comparison examples, read-out: BACE IC50 (assay 1)
Protocol: The substrate was dissolved at 1 mg/ml in DMSO.
The assay was performed in the presence of OptiMEM (supernatant collected over 24 h and cleared from cellular debris by centrifugation) containing the ectodomain of BACE1, 25 μl water containing the desired 2-fold concentration of test compound and 2% DMSO, 1 μM substrate peptide, 20 mM NaOAc, pH 4.4, and 0.04% Triton-X100 in a total assay volume of 50 μl in a 384 well plate. In general, 25 μl of compound dilution were given to the plate followed by the addition of 10 μl of BACE1 containing OptiMEM™ diluted 1:10 in water with 0.2% Triton X-100. The reaction was started with the addition of 15 μl substrate in NaOAc buffer. The reaction was incubated at rt (dark) in an Envision® multilabel reader (Perkin Elmer) and the cleavage of the substrate was recorded as kinetic for 60 min at ex: 485 nm, em: 538 nm. Blank wells containing no enzyme were included on each plate.
The intensity of fluorescence was regressed against time in order to derive velocities of reaction in all 384 wells. These velocities were used for calculating percent control using an uninhibited control containing 1% DMSO as 100% and blank control performed in the absence of enzyme as 0%. IC50 values were calculated by fitting percent control vs. test compound concentration using Assay Explorer.

[4] = biological target: hERG (Homo sapiens (Human), UniProt Q12809); assay: hERG-Channel Assay (Assay 3), whole-cell patch clamp; assay type: cell-based; conditions: for inhibition at 10 µM: human, HEK293 cells stably transfected with hERG, pH 7.4, HEK293 cells transfected with hERG
Text: hERG-Channel Assay (Assay 3)
HEK (human embryonic kidney) 293 cells were stably transfected with hERG cDNA.
Cells were superfused with a bath solution containing (mM): NaCl (137), KCl (4.0), MgCl2 (1.0), CaCl2 (1.8), Glucose (10), HEPES (10), pH 7.4 with NaOH. Patch pipettes were made from borosilicate glass tubing using a horizontal puller and filled with pipette solution containing (mM): K-aspartate (130), MgCl2 (5.0), EGTA (5.0), K2ATP (4.0), HEPES (10.0), pH 7.2 with KOH. Resistance of the microelectrodes was in the range between 2 and 5 MΩ.
Membrane currents were recorded using an EPC-10 patch clamp amplifier and PatchMaster software. hERG-mediated membrane currents were recorded at 35° C., using the whole-cell configuration of the patch-clamp technique. Transfected HEK293 cells were clamped at a holding potential of −60 mV and hERG-mediated inactivating tail currents were elicited using a pulse pattern with fixed amplitudes (activation/inactivation: 40 mV for 2000 ms; recovery: −120 mV for 2 ms; ramp to 40 mV in 2 ms; inactivating tail current: 40 mV for 50 ms) repeated at 15 s intervals. During each inter-pulse interval 4 pulses scaled down by a factor of 0.2 were recorded for a P/n leak subtraction procedure. Rs compensation was employed up to a level that safely allowed recording devoid of ringing.
The different concentrations of the test compound were applied sequentially on each of the different cells investigated. A steady state level of baseline current was measured for at least 6 sweeps prior to the application of the first test compound concentration.
The test compound was dissolved in DMSO to yield a master stock solution which was diluted further in DMSO to stock solutions needed for the lower concentrations. Final dilutions in extracellular buffer were prepared freshly from these stocks by a 1:1000 dilution step each before starting the experiments.
Peak current amplitudes were measured 3 ms after the ramp to +40 mV. For baseline and each concentration the peak currents of the three last sweeps before application of the next concentration were averaged. Residual currents (I/I0) were calculated for each cell as the fraction of actual average peak current and average baseline peak current. Results are presented as percent (%) inhibition (1−I/I0)*100% at 10 μM.

hERG, sequence (Q12809 whole entry): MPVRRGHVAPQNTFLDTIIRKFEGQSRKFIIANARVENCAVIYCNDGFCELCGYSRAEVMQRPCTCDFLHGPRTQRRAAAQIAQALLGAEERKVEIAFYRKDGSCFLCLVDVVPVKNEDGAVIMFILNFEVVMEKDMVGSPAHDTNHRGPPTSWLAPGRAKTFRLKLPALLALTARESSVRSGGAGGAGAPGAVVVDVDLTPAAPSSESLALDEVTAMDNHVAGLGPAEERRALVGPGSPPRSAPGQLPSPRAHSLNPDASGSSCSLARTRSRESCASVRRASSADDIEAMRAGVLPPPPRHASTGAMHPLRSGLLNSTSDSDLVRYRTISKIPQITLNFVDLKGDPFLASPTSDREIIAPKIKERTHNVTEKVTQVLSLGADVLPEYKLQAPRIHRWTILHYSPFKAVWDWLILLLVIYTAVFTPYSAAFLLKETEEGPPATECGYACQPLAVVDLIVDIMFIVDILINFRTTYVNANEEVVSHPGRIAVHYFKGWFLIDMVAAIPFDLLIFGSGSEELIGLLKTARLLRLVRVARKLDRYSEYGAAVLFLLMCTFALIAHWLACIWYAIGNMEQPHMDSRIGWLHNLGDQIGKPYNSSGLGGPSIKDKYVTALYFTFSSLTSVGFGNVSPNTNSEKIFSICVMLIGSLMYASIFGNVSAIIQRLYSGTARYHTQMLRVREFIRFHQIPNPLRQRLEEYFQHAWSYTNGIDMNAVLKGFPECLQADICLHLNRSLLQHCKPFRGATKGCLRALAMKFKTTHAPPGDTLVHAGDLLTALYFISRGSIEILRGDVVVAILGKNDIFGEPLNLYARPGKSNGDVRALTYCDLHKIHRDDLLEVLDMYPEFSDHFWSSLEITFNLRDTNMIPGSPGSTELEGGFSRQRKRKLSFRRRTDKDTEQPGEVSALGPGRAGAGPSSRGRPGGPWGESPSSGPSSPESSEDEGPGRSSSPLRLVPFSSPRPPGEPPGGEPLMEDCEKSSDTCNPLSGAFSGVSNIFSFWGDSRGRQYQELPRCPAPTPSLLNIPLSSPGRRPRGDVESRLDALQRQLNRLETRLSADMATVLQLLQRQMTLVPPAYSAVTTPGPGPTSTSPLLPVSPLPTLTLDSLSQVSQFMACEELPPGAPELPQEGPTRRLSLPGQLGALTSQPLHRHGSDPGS
truncated human beta-secretase, BACE1 (amino acids 1-454), sequence (P56817 22-454): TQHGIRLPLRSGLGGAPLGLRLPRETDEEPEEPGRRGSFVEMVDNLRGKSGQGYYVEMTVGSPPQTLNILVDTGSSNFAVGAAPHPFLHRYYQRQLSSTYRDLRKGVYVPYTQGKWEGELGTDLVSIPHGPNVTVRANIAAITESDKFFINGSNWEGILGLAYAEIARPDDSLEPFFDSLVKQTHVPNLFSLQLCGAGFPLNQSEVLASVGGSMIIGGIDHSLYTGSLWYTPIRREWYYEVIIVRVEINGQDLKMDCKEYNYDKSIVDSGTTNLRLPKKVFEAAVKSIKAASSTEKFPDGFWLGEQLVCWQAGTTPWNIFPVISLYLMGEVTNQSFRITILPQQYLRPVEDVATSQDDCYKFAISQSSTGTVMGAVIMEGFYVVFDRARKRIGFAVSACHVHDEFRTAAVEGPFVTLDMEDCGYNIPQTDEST

Row | IC50 [2] [nM] | IC50 [3] [nM] | pIC50 [2] | pIC50 [3] | Structure (SMILES) | IC50 at 48 h [1] [µM] | inhibition at 10 µM [4] [%] | hERG (assay 3) ([4]; at 10 μM, Table 2 comparison examples)
1 | 0.65 | 5 |  |  | CO[C@H]1[C@H](C)C[C@@]2(Cc3ccc(C#N)cc3[C@]23N=C(N)N(Cc2ccncn2)C3=O)C[C@@H]1C [Example 24] | 200 | 23 | 
2 |  |  | 7.80 | 7.31 | COCCN1C(=O)C2(N=C1N)c1cc(C#N)ccc1C[C@]21CC[C@@H](OC)CC1 (some centres unmarked) [Comparison example drawing 14, reference compound] |  |  | 
3 | 0.76 | 11 |  |  | CC[C@@H]1C[C@]2(CC[C@H]1OC)Cc1ccc(C#N)cc1[C@]21N=C(N)N(Cc2ncccn2)C1=O [Example 1] | 200 | 8 | 
4 | 0.95 | 6 |  |  | CO[C@H]1CC[C@@]2(Cc3ccc(C#N)cc3[C@]23N=C(N)N(CC2COCCO2)C3=O)C[C@@H]1C (some centres unmarked) [Example 27] | > 200 | 19 | 
5 |  |  | 8.15 |  | COC1CCC2(CC1)Cc1ccc(C#N)cc1C21N=C(N)N(CC2CCCO2)C1=O (centres unmarked) [Comparison example drawing 11, reference compound] |  |  | hERG (assay 3) 16% at 10 μM
6 | 0.9 |  |  |  | CC[C@H]1C[C@@]2(CC[C@@H]1OC)Cc1ccc(C#N)cc1[C@]21N=C(N)N(C[C@H]2CCCO2)C1=O [Example 5] | 200 | 7 | 
7 |  |  | 7.80 | 6.97 | COC1CCC2(CC1)Cc1ccc(C#N)cc1C21N=C(N)N(C(C)C)C1=O (centres unmarked) [Comparison example drawing 17, reference compound] |  |  | 
8 | 0.35 | 4 |  |  | CO[C@H]1[C@H](C)C[C@@]2(Cc3ccc(C#N)cc3[C@]23N=C(N)N(CC2(C)COC2)C3=O)C[C@@H]1C [Example 11] | > 400 | 6 | 
9 | 0.99 |  |  |  | CO[C@H]1[C@H](C)C[C@@]2(Cc3ccc(F)cc3[C@]23N=C(N)N(C[C@@H]2CCOC2)C3=O)C[C@@H]1C [Example 25] | 200 | 10 | 
10 | 0.57 | 10 |  |  | CC[C@@H]1C[C@]2(CC[C@H]1OC)Cc1ccc(C#N)cc1[C@]21N=C(N)N(CC(C)(C)F)C1=O [Example 3] | > 200 | 9 | 
11 | 1.42 | 2 |  |  | COCCN1C(=O)[C@]2(N=C1N)c1cc(C#N)ccc1C[C@@]21CC[C@H](OC)[C@@H](C)C1 [Example 7] | 400 | 8 | 
12 | 0.2 | 11 |  |  | CO[C@H]1[C@H](C)C[C@@]2(Cc3ccc(C#N)cc3[C@]23N=C(N)N(CC2CCOCC2)C3=O)C[C@@H]1C [Example 16] | 200 | 6 | 
13 |  |  | 7.80 | 6.38 | CO[C@H]1CC[C@]2(CC1)Cc1ccc(CCC3CC3)cc1[C@]21N=C(N)N(C[C@@H]2CCO2)C1=O [Comparison example drawing 20, reference compound] |  |  | 
14 | 0.4 | 6 |  |  | CO[C@H]1[C@H](C)C[C@@]2(Cc3ccc(C#N)cc3[C@]23N=C(N)N(CCC2COC2)C3=O)C[C@@H]1C [Example 19] | 400 | 8 | 
15 | 1.12 | 9 |  |  | CO[C@H]1[C@H](C)C[C@@]2(Cc3ccc(C#N)cc3[C@]23N=C(N)N(Cc2ncc(F)cn2)C3=O)C[C@@H]1C [Example 10] | 200 | 38 | 
